# ChEMBL document CHEMBL4428076 (J Med Chem, 2016)
# Activity calls are given as the source filed them. The rule behind the calls is not given here.
# How the values were obtained:
# [1] = Toxicity in CD-1 mouse assessed as inhibition of gastrointestinal transit by measuring distance traveled by charcoal at 1.5 mg/kg, sc followed by charcoal meal administration measured after 30 mins; assay type: organism-based; settings: in vivo, 0.5 h
# [2] = Toxicity in C57BL/6 mouse assessed as conditioned place aversion at 1.3 to 3.2 mg/kg/day, ip measured for 30 mins post dose; assay type: organism-based; settings: in vivo, 0.5 h
# Mus musculus [3] = experiment: Antinociceptive activity in CD-1 mouse assessed as increase in reaction time at 1.5 mg/kg, sc measured 15 mins post dose in presence of opioid antagonist naloxone by radiant heat tail flick assay; assay type: functional, organism-based
# Mus musculus [4] = experiment: Potency index, ratio of morphine ED50 to compound ED50 in icv dosed CD-1 mouse; assay type: functional
# [5] = Toxicity in C57BL/6 mouse assessed as decrease in respiratory rate at 1.2 mg/kg, sc measured at 15 to 35 mins post dose; assay type: organism-based; settings: in vivo
# Mus musculus [6] = experiment: Antinociceptive activity in 129Sv6 mouse assessed as increase in reaction time at 0.1 to 10 mg/kg, sc measured 15 mins post dose by radiant heat tail flick assay; assay type: functional, organism-based
# [7] = biological target: T1, Kappa-type opioid receptor (Mus musculus, UniProt P33534); experiment: Antagonist activity at mouse kappa opioid receptor-1 expressed in CHO cell membranes assessed as inhibition of U50,488H-induced [35S]GTPgammaS binding incubated for 60 mins by scintillation spectroscopic analysis; assay type: functional
# T1 sequence (P33534 whole entry): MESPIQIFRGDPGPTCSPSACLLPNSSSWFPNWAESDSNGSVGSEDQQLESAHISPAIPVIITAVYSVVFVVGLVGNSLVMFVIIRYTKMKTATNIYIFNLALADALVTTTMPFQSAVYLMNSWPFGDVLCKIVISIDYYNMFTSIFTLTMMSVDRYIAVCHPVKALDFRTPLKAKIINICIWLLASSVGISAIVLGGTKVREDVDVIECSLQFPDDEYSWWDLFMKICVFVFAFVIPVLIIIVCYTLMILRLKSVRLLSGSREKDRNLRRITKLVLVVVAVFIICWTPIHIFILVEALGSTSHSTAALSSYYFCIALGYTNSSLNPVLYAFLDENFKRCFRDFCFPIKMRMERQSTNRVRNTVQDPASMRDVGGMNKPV
# Mus musculus [8] = experiment: Antinociceptive activity in CD-1 mouse assessed as increase in reaction time at 1.5 mg/kg, sc measured 15 mins post dose in presence of adrenergic alpha2 receptor antagonist yohimbine by radiant heat tail flick assay; assay type: functional, organism-based
# Mus musculus [9] = experiment: Antinociceptive activity in CD-1 mouse assessed as increase in reaction time at 1.5 mg/kg, sc measured 15 mins post dose in presence of kappa opioid receptor antagonist norBNI by radiant heat tail flick assay; assay type: functional, organism-based
# Mus musculus [10] = experiment: Potency index, ratio of morphine ED50 to compound ED50 in sc dosed CD-1 mouse; assay type: functional
# Mus musculus [11] = experiment: Antinociceptive activity in CD-1 mouse assessed as increase in reaction time at 1.5 mg/kg, sc measured 15 mins post dose in presence of delta opioid receptor antagonist NTI by radiant heat tail flick assay; assay type: functional, organism-based
# [12] = Toxicity in CD-1 mouse assessed as physical dependence by measuring number of jumps at 1.5 mg/kg, sc bid for 29 days followed by opioid antagonist naloxone injection on day 29 measured for 15 mins post last dose; assay type: organism-based; settings: in vivo, 0.25 h
# [13] = Toxicity in CD-1 mouse assessed as inhibition of gastrointestinal transit by measuring distance traveled by charcoal at 4 mg/kg, sc followed by charcoal meal administration measured after 30 mins; assay type: organism-based; settings: in vivo, 0.5 h
# Mus musculus [14] = experiment: Antinociceptive activity in CD-1 mouse assessed as increase in reaction time at 1.5 mg/kg, sc administered on day 6 after DOR1-exon3 antisense oligodeoxynucleotide injection on day 1, 3 and 5 by radiant heat tail flick assay; assay type: functional, organism-based
# Mus musculus [15] = experiment: Antinociceptive activity in po dosed CD-1 mouse assessed as increase in reaction time administered through gavage measured 15 mins post dose by radiant heat tail flick assay; assay type: functional; settings: CD-1, po, 0.25 h
# Mus musculus [16] = experiment: Antinociceptive activity in MOR-1 6TM/E11 splice variant knock out sc dosed C57BL/6 mouse assessed as increase in reaction time by radiant heat tail flick assay; assay type: functional; settings: C57BL/6, sc
# [17] = biological target: T1, Kappa-type opioid receptor; experiment: Displacement of [125I]-IBNtxA from mouse kappa opioid receptor-1 expressed in CHO cell membranes incubated for 90 mins
# [18] = biological target: 5-hydroxytryptamine receptor 7 (Homo sapiens) (UniProt P34969); experiment: Displacement of [3H]LSD from recombinant human 5HT7A receptor expressed in HEK cell membrane after 90 mins by microbeta scintillation counting method
# 5-hydroxytryptamine receptor 7 (Homo sapiens), sequence (P34969 whole entry): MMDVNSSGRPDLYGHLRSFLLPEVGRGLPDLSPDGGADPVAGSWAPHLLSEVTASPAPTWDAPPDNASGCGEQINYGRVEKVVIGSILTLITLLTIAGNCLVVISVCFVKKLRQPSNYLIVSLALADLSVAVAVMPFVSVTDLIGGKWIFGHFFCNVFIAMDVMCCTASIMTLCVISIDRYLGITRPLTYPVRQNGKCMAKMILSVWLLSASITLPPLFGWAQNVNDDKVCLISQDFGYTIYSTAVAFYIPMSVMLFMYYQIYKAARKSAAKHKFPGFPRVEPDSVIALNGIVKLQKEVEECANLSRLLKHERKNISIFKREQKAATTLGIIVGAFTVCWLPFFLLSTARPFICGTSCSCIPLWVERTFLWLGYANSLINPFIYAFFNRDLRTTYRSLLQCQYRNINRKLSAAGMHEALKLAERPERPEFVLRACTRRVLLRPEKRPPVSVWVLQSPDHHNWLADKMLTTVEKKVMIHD
# Mus musculus [19] = experiment: Ratio of ED50 for sc dosed CD-1 mouse administered twice daily at dosing intervals of 12 hrs for 29 days to ED50 for sc dosed CD-1 mouse measured 15 mins post dose; assay type: functional
# Mus musculus [20] = experiment: Antinociceptive activity in sc dosed C57BL/6 mouse assessed as increase in reaction time by radiant heat tail flick assay; assay type: functional; settings: C57BL/6, sc
# Mus musculus [21] = experiment: Antinociceptive activity in sc dosed CD-1 mouse assessed as increase in reaction time administered twice daily at dosing intervals of 12 hrs for 29 days by radiant heat tail flick assay; assay type: functional; settings: CD-1, sc
# Mus musculus [22] = experiment: Antinociceptive activity in sc dosed CD-1 mouse assessed as increase in AUC of reaction time administered twice daily at dosing intervals of 12 hrs for 29 days by radiant heat tail flick assay relative to morphine; assay type: functional
# [23] = biological target: T2, Delta-type opioid receptor (Mus musculus, UniProt P32300); experiment: Antagonist activity at mouse delta opioid receptor-1 expressed in CHO cell membranes assessed as inhibition of DPDPE-induced [35S]GTPgammaS binding incubated for 60 mins by scintillation spectroscopic analysis; assay type: functional
# T2 sequence (P32300 whole entry): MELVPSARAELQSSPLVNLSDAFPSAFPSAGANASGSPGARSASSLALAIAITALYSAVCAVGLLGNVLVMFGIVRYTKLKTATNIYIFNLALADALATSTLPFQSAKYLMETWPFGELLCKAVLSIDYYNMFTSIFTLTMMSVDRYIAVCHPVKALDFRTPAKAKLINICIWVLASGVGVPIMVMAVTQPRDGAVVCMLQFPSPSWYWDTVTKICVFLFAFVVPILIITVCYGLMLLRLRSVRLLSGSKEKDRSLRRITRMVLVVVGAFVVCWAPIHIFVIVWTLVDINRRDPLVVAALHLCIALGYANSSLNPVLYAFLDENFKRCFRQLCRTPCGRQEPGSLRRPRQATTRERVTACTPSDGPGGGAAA
# [24] = Toxicity in CD-1 mouse assessed as physical dependence by measuring number of jumps at 1.5 mg/kg, sc bid for 5 days followed by opioid antagonist naloxone injection on day 5 measured for 15 mins post last dose; assay type: organism-based; settings: in vivo, 0.25 h
# Mus musculus [25] = experiment: Antinociceptive activity in MOR-1 7TM/E1 splice variant knock out sc dosed C57BL/6 mouse assessed as increase in reaction time by radiant heat tail flick assay; assay type: functional; settings: C57BL/6, sc
# Mus musculus [26] = experiment: Antinociceptive activity in sc dosed CD-1 mouse assessed as increase in reaction time measured 15 mins post dose by radiant heat tail flick assay; assay type: functional; settings: CD-1, sc, 0.25 h
# Mu-type opioid receptor [27] = biological target: T3, Mu-type opioid receptor (Homo sapiens, UniProt P35372); experiment: Inhibition of DAMGO-induced beta-arrestin-2 recruitment at mu opioid receptor-1 (unknown origin) expressed in CHO cells preincubated for 30 mins followed by DAMGO addition measured after 90 mins by beta-galactosidase complementation assay; assay type: cell-based
# T3 sequence (P35372 whole entry): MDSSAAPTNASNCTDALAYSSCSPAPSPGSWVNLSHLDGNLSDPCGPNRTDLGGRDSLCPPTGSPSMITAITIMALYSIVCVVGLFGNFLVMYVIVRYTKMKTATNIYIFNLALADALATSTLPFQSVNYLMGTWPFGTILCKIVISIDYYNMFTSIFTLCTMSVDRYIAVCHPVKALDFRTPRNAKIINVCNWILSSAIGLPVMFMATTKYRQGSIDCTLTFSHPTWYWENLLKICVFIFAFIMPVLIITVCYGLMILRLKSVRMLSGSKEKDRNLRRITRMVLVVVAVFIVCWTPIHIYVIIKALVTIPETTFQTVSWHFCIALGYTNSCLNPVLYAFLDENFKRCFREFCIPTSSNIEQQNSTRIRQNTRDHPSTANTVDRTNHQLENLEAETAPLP
# [28] = biological target: T2, Delta-type opioid receptor; experiment: Displacement of [125I]-IBNtxA from mouse delta opioid receptor-1 expressed in CHO cell membranes incubated for 90 mins
# Mus musculus [29] = experiment: Antinociceptive activity in CD-1 mouse assessed as increase in reaction time at 1.5 mg/kg, sc measured 15 mins post dose in presence of mu opioid receptor antagonist beta-FNA by radiant heat tail flick assay; assay type: functional, organism-based
# Mus musculus [30] = experiment: Antinociceptive activity in icv dosed CD-1 mouse assessed as increase in reaction time measured 15 mins post dose by radiant heat tail flick assay; assay type: functional
# Mus musculus [31] = experiment: Antinociceptive activity in sc dosed CD-1 mouse assessed as increase in reaction time administered four times per day for 5 days by radiant heat tail flick assay; assay type: functional; settings: CD-1, sc, 120 h
# Mus musculus [32] = experiment: Antinociceptive activity in CD-1 mouse assessed as increase in reaction time at 1.5 mg/kg, sc administered on day 6 after MOR1-exon1 antisense oligodeoxynucleotide injection on day 1, 3 and 5 by radiant heat tail flick assay; assay type: functional, organism-based
# [33] = Toxicity in C57BL/6 mouse assessed as conditioned place preference at 1.3 to 3.2 mg/kg/day, ip measured for 30 mins post dose; assay type: organism-based; settings: in vivo, 0.5 h
# Mu-type opioid receptor [34] = biological target: T3, Mu-type opioid receptor; experiment: Activation of mu opioid receptor-1 (unknown origin) expressed in CHO cells assessed as beta-arrestin-2 recruitment at 10 uM after 90 mins by beta-galactosidase complementation assay; assay type: cell-based; settings: 1.5 h
# Mus musculus [35] = experiment: Antinociceptive activity in CD-1 mouse assessed as time required for peak effect at 1.5 mg/kg, sc by radiant heat tail flick assay; assay type: functional
structure (smiles),measurement,setting,value
CC[C@@H]1CN2CC[C@]3(Nc4cccc(OC)c4C3=O)[C@@H]2C[C@@H]1/C(=C\OC)C(=O)OC,Activity,[1],Toxic
same,Activity,[2],Non-Toxic
same,Activity,Mus musculus [3],inactive
same,Ratio ED50,Mus musculus [4],1.5
same,Activity,[5],Non-Toxic
same,Activity,Mus musculus [6],Active
same,IC50,[7],0.031 µM
same,Activity,Mus musculus [8],Active
same,Activity,Mus musculus [9],Active
same,Ratio ED50,Mus musculus [10],3
same,Activity,Mus musculus [11],Active
same,Activity,[12],14
same,Activity,[13],Non-Toxic
same,Activity,Mus musculus [14],Active
same,ED50,Mus musculus [15],7.5 mg/kg
same,ED50,Mus musculus [16],1.4 mg/kg
same,Ki,[17],0.024 µM
same,inhibition,[18],Active
same,Ratio ED50,Mus musculus [19],6
same,ED50,Mus musculus [20],0.83 mg/kg
same,ED50,Mus musculus [21],4.5 mg/kg
same,fold change (FC),Mus musculus [22],6
same,IC50,[23],0.061 µM
same,Activity,[24],12
same,ED50,Mus musculus [25],> 30 mg/kg
same,ED50,Mus musculus [26],0.76 mg/kg
same,IC50,Mu-type opioid receptor [27],0.034 µM
same,inhibition,Mu-type opioid receptor [27],Dose-dependent effect
same,Ki,[28],0.003 µM
same,Activity,Mus musculus [29],inactive
same,ED50,Mus musculus [30],0.38 µg
same,ED50,Mus musculus [31],1.6 mg/kg
same,Activity,Mus musculus [32],inactive
same,Activity,[33],Non-Toxic
same,Activity,Mu-type opioid receptor [34],Not Active
same,Time,Mus musculus [35],15 min
